Experiments:
EGFR = molecular target: T1, EGFR (Homo sapiens, UniProt P00533); test: EGFR ELISA assay (in vitro kinase activity, EGFR captured from A431 cell lysate); assay type: biochemical; design: concentration or dose not given beside the values
T1 construct: Add 7 ug A431 cell lysate per well (EGFR source); endogenous in cells; host or cells: A431
Summary of the method: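 EGFR from A431 lysate was captured on anti-EGFR antibody-coated plates and preincubated with compounds for 30 min. Autophosphorylation ran 5 min with 3 uM ATP and 5 mM MnCl2 (final), stopped with 20 mM EDTA. Phosphotyrosine was detected by anti-pTyr ELISA with ABTS/H2O2, read at 410 nm.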

MET = MET biochemical kinase assay; design: species or system human; concentration or dose not given beside the values
Summary of the method: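 Immunocaptured MET autophosphorylation, read colorimetrically (TMB) via HRP anti-phosphotyrosine antibody. Kinase reaction initiated with buffer containing ATP and divalent metals after compound addition to plate-bound receptor from lysates.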

T1 sequence (P00533 25-1210): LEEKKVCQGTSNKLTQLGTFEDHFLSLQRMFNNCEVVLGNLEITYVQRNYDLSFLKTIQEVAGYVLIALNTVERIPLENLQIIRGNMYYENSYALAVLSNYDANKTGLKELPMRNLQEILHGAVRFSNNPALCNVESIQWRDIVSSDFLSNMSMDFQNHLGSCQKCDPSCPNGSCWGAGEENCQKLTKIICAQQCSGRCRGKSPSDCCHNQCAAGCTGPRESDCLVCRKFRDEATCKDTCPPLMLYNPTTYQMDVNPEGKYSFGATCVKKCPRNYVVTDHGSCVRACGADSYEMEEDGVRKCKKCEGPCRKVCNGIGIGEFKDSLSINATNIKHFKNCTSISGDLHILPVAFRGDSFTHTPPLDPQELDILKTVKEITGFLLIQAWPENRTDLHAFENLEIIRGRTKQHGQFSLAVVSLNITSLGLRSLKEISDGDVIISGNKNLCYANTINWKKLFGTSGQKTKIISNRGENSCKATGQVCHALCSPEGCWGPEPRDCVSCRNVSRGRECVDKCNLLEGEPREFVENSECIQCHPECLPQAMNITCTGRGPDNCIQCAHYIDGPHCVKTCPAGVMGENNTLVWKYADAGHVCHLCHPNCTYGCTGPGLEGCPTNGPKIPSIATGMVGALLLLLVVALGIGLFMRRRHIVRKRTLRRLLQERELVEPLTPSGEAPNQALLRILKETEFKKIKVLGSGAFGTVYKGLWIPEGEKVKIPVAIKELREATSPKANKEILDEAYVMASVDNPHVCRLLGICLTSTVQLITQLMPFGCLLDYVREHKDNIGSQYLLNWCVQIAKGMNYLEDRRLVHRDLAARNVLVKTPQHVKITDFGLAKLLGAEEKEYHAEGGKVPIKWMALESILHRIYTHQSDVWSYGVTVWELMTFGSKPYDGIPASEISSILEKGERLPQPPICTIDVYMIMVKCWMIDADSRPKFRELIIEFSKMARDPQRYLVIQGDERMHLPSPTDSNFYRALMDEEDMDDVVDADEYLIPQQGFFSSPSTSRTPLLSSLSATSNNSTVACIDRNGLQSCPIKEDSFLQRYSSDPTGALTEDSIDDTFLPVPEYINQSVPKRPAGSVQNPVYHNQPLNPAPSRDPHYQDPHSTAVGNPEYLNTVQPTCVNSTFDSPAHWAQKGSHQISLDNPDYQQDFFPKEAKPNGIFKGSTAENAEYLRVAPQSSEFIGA

SMILES | Biochem EGFR %Inhibition (EGFR) [%] | Met Kinase % Inhibition (MET) [%]
CCOc1ccc(C=C2C(=O)Nc3c(Br)cc(Br)cc32)cc1OC [10719/A02] | 43.0 | 40.9
O=C1Nc2ccc(I)cc2C1=Cc1ccc(O)cc1 [10719/B07] | 23.7 | 52.2
CCc1c(C)[nH]c(C=C2C(=O)Nc3ccc(I)cc32)c1C [10719/B05] | 35.9 | 33.6
O=C1Nc2ccc(CCCl)cc2C1=Cc1ccco1 [10718/G10] | -7.5 | 10.8
Cc1c(Br)ccc2c1C(=Cc1ccc(O)c(O)c1)C(=O)N2 [10719/C03] | 60.6 | 69.1
O=C1Nc2ccc(S(=O)(=O)N3CCOCC3)cc2C1=Cc1ccc(Cl)c([N+](=O)[O-])c1 [10718/F08] | -8.7 | 28.4
CCOC(=O)c1cc(C=C2C(=O)Nc3ccc(S(=O)(=O)N4CCOCC4)cc32)oc1C [10718/F06] | -9.1 | 42.5
CCOc1ccccc1C=C1C(=O)Nc2ccc(I)cc21 [10717/B02] | 31.7 | 87.5
O=C1Nc2c(Br)cc(Br)cc2C1=Cc1cccc([N+](=O)[O-])c1 [10719/A10] | 8.2 | 13.4
CCOC(=O)CCc1c(C(=O)OCC)[nH]c(C=C2C(=O)Nc3ccc(S(=O)(=O)N4CCOCC4)cc32)c1CC(=O)OCC [10718/F05] | -4.9 | 53.7
Cc1c(Br)ccc2c1C(=Cc1ccc(F)cc1Cl)C(=O)N2 [10719/C09] | -0.1 | 8.9
CCOc1ccc(C=C2C(=O)Nc3ccc(Br)c(C)c32)cc1OC [10719/C02] | 10.2 | 41.3
O=C1Nc2ccc(CCCl)cc2C1=Cc1ccc2ccccc2c1O [10718/G04] | 15.8 | 78.1
Cn1cccc1C=C1C(=O)Nc2ccc(I)cc21 [10717/B04] | 10.3 | 70.0
COc1cc(OC)c(C=C2C(=O)Nc3c(Br)cc(Br)cc32)c(OC)c1 [10719/A06] | 18.2 | -7.0
Cc1c(Br)ccc2c1C(=Cc1ccc(N(C)C)cc1)C(=O)N2 [10719/C08] | -10.2 | 57.5
CCc1c(C)[nH]c(C=C2C(=O)Nc3ccc(Br)c(C)c32)c1C [10719/C05] | 27.4 | 35.5
Cc1c(O)ccc(C=C2C(=O)Nc3ccc(CCCl)cc32)c1O [10718/G09] | -15.4 | 27.0
COc1cc(OC)c(C=C2C(=O)Nc3ccc(I)cc32)c(OC)c1 [10719/B06] | -0.5 | 22.5
O=C1Nc2c(Br)cc(Br)cc2C1=Cc1ccc(F)cc1C(F)(F)F [10719/A11] | 10.5 | 34.9
CN(C)c1ccc(C=C2C(=O)Nc3ccc(I)cc32)cc1 [10719/B08] | 42.3 | 33.2
COC(=O)c1[nH]c(C)c(C=C2C(=O)Nc3ccc(S(=O)(=O)N4CCOCC4)cc32)c1C(=O)OC [10718/F07] | -6.3 | 67.9
O=C1Nc2ccc(S(=O)(=O)N3CCOCC3)cc2C1=Cc1ccco1 [10718/F10] | -12.0 | 23.7
O=C1Nc2c(Br)cc(Br)cc2C1=Cc1ccc(F)cc1Cl [10719/A09] | 2.2 | 47.0
COC(=O)c1[nH]c(C)c(C=C2C(=O)Nc3ccc(CCCl)cc32)c1C(=O)OC [10718/G07] | -21.3 | 52.0
O=C1Nc2ccc(I)cc2C1=Cc1ccc(O)c(O)c1 [10719/B03] | 59.5 | 85.8
O=C1Nc2ccc(CCCl)cc2C1=Cc1ccc(Cl)c([N+](=O)[O-])c1 [10718/G08] | -8.3 | 17.5

SMILES | Biochem EGFR %Inhibition (EGFR) [%] | Met Kinase % Inhibition (MET) [%]
O=C1Nc2ccc(CCCl)cc2C1=Cc1ccc([N+](=O)[O-])o1 [10718/G11] | -4.9 | 3.0
CN(C)c1ccc(C=C2C(=O)Nc3c(Br)cc(Br)cc32)cc1 [10719/A08] | 47.3 | 75.5
CCOC(=O)c1c(C)[nH]c(C=C2C(=O)Nc3ccc(CCCl)cc32)c1C [10718/G02] | 49.2 | 67.7
O=C1Nc2ccc(I)cc2C1=Cc1ccc(F)cc1Cl [10719/B09] | -17.7 | 23.5
O=C1Nc2ccc(I)cc2C1=Cc1ccc(F)cc1C(F)(F)F [10719/B11] | -23.9 | 36.5
O=C1Nc2ccc(I)cc2C1=Cc1cccc([N+](=O)[O-])c1 [10719/B10] | -1.2 | 53.4
COc1cc(OC)c(C=C2C(=O)Nc3ccc(Br)c(C)c32)c(OC)c1 [10719/C06] | -14.3 | 18.4
COc1cc(Br)c(O)c(C=C2C(=O)Nc3ccc(S(=O)(=O)N4CCOCC4)cc32)c1 [10718/F03] | 22.5 | 87.9
COc1cc(Br)c(O)c(C=C2C(=O)Nc3ccc(CCCl)cc32)c1 [10718/G03] | 57.3 | 77.9
COc1ccc(C=C2C(=O)Nc3ccc(Br)c(C)c32)c(OC)c1 [10719/C04] | 14.4 | 14.7
O=C1Nc2c(Br)cc(Br)cc2C1=Cc1ccc(O)c(O)c1 [10719/A03] | 67.7 | 84.1
CCOC(=O)c1cc(C=C2C(=O)Nc3ccc(CCCl)cc32)oc1C [10718/G06] | -18.7 | 61.0
CCOc1ccc(C=C2C(=O)Nc3ccc(I)cc32)cc1OC [10719/B02] | 29.0 | 47.0
O=C1Nc2ccc(I)cc2C1=Cc1ccc(F)cc1 [10717/B05] | 31.7 | 87.4
Cc1c(O)ccc(C=C2C(=O)Nc3ccc(S(=O)(=O)N4CCOCC4)cc32)c1O [10718/F09] | -9.5 | 52.7
CCc1c(C)[nH]c(C=C2C(=O)Nc3c(Br)cc(Br)cc32)c1C [10719/A05] | 23.1 | 39.6
O=C1Nc2ccc(I)cc2C1=Cc1cccs1 [10717/B03] | 7.3 | 90.5
O=C1Nc2ccc(S(=O)(=O)N3CCOCC3)cc2C1=Cc1ccc([N+](=O)[O-])o1 [10718/F11] | -3.9 | 31.3
CCOC(=O)c1c(C)[nH]c(C=C2C(=O)Nc3ccc(S(=O)(=O)N4CCOCC4)cc32)c1C [10718/F02] | 17.8 | 66.7
COc1ccc(C=C2C(=O)Nc3ccc(I)cc32)c(OC)c1 [10719/B04] | 29.9 | 38.4
O=C1Nc2c(Br)cc(Br)cc2C1=Cc1ccc(O)cc1 [10719/A07] | 15.5 | 68.1
Cc1c(Br)ccc2c1C(=Cc1ccc(O)cc1)C(=O)N2 [10719/C07] | 14.4 | 7.7
O=C1Nc2ccc(I)cc2C1=Cc1c[nH]c2ccccc12 [10717/B06] | -30.8 | 89.5
O=C1Nc2ccc(S(=O)(=O)N3CCOCC3)cc2C1=Cc1ccc2ccccc2c1O [10718/F04] | 1.2 | 78.1
COc1ccc(C=C2C(=O)Nc3c(Br)cc(Br)cc32)c(OC)c1 [10719/A04] | 43.7 | 22.9
CCOC(=O)CCc1c(C(=O)OCC)[nH]c(C=C2C(=O)Nc3ccc(CCCl)cc32)c1CC(=O)OCC [10718/G05] | 2.8 | 60.3

— patent EP1247803A2, “Indolinone compounds suitable for modulation of protein kinases” (Sugen, Inc., priority 1996, dated 1998)
